Broadly, the pIC50 is the IC50 on a negative log10 scale, so that one unit is a factor of ten. Read a high pIC50 as a low IC50.

SMILES strings stand for the structures. pIC50: −log10 of the molar value. Counter-ions that a name gives are not always drawn.

Assay [1] relates to rhIFNγ stimulated STAT-3 phosphorylation in the A549 human epithelial cell line. In words: A549 Cell Assay: Inhibition of pSTAT3. In kind it is cell-based. As to conditions: A549 cells. A digest of the protocol:
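A549 cells cultured 18 h were preincubated 1 h at 37° C with compound (0.3 nM to 10 μM, 0.1% DMSO) in DMEM with 0.2% BSA, then stimulated with 20 ng/mL rhIFNγ for 30 min. pSTAT3 Tyr705 in the lysates was measured by MSD immunoassay and expressed as percent inhibition.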

Another assay concerns the target JAK1 (Homo sapiens (Human), UniProt P23458). In words: JAK Caliper Enzyme Assay at 1 mM ATP (JAK1). In kind it is biochemical. As to conditions: Caliper assay at 1 mM ATP.
In a further assay the target is JAK2 (Homo sapiens (Human), UniProt O60674). In words: JAK Caliper Enzyme Assay at 1 mM ATP (JAK2). To be noted: Caliper assay at 1 mM ATP. In kind it is biochemical.
In a further assay the target is JAK3 (Homo sapiens (Human), UniProt P52333). Briefly: JAK Caliper Enzyme Assay at 1 mM ATP (JAK3). The assay is classed as biochemical. To be noted: Caliper assay at 1 mM ATP.
The target of another assay is TYK2 (Homo sapiens (Human), UniProt P29597). In words: JAK Caliper Enzyme Assay at 1 mM ATP (TYK2). To be noted: Caliper assay at 1 mM ATP. The assay is classed as biochemical.
TYK2, sequence (P29597 whole entry): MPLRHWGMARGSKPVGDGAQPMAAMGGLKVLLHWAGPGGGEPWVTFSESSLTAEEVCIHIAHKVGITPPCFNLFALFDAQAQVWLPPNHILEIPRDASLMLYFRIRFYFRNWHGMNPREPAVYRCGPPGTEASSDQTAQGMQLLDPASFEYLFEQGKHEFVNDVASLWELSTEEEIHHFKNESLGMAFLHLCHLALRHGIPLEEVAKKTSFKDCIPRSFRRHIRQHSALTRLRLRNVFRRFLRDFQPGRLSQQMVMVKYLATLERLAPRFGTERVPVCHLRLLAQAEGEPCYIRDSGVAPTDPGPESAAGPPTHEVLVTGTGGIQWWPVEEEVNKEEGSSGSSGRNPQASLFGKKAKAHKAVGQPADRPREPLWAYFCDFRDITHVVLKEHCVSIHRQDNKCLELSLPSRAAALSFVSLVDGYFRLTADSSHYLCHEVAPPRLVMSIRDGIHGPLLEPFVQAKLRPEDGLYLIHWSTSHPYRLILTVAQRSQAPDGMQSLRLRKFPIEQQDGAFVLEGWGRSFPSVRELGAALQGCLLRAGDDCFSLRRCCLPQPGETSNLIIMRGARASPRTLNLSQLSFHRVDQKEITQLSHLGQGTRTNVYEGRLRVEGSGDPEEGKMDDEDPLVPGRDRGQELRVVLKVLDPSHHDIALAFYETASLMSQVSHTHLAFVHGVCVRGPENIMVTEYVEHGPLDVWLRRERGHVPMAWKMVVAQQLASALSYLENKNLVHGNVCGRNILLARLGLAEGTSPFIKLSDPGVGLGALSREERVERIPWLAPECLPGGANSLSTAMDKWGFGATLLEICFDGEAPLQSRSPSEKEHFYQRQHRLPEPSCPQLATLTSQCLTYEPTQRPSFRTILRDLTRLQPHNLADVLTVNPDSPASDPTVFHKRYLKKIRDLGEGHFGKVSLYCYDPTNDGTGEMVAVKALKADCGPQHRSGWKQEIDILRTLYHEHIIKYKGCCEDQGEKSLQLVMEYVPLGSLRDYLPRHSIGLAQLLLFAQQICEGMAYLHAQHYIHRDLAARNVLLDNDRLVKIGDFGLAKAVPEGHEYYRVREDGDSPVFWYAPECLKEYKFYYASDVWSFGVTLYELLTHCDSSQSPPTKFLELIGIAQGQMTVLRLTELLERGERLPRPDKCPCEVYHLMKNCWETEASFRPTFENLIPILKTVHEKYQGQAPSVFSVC

JAK3, sequence (P52333 whole entry): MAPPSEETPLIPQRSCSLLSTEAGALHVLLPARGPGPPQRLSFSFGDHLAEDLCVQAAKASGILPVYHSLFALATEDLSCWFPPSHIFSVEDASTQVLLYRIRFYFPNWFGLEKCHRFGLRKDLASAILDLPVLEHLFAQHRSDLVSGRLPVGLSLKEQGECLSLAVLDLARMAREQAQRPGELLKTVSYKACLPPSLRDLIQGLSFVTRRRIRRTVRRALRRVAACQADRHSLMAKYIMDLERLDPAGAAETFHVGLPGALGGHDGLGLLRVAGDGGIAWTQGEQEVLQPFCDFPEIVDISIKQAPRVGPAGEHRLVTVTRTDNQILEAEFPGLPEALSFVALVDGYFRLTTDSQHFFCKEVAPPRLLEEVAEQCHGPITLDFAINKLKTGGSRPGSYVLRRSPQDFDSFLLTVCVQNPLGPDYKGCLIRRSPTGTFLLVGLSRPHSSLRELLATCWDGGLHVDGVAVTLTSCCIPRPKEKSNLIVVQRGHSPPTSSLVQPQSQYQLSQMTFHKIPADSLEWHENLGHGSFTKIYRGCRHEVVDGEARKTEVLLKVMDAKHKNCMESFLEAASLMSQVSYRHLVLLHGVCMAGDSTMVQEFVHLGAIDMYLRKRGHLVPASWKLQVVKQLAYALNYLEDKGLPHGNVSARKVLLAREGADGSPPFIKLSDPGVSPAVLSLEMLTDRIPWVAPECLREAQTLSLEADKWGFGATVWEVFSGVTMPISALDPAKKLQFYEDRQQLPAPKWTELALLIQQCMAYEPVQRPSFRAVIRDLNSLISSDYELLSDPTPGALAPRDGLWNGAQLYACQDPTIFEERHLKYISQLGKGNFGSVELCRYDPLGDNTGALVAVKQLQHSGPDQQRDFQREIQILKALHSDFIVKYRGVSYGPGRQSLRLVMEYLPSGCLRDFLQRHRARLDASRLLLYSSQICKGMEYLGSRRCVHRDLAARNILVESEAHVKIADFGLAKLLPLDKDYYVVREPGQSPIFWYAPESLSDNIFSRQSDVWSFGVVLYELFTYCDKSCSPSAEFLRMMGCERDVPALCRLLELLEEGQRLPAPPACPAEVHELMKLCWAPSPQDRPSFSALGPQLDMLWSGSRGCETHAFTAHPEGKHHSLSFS
JAK1, sequence (P23458 whole entry): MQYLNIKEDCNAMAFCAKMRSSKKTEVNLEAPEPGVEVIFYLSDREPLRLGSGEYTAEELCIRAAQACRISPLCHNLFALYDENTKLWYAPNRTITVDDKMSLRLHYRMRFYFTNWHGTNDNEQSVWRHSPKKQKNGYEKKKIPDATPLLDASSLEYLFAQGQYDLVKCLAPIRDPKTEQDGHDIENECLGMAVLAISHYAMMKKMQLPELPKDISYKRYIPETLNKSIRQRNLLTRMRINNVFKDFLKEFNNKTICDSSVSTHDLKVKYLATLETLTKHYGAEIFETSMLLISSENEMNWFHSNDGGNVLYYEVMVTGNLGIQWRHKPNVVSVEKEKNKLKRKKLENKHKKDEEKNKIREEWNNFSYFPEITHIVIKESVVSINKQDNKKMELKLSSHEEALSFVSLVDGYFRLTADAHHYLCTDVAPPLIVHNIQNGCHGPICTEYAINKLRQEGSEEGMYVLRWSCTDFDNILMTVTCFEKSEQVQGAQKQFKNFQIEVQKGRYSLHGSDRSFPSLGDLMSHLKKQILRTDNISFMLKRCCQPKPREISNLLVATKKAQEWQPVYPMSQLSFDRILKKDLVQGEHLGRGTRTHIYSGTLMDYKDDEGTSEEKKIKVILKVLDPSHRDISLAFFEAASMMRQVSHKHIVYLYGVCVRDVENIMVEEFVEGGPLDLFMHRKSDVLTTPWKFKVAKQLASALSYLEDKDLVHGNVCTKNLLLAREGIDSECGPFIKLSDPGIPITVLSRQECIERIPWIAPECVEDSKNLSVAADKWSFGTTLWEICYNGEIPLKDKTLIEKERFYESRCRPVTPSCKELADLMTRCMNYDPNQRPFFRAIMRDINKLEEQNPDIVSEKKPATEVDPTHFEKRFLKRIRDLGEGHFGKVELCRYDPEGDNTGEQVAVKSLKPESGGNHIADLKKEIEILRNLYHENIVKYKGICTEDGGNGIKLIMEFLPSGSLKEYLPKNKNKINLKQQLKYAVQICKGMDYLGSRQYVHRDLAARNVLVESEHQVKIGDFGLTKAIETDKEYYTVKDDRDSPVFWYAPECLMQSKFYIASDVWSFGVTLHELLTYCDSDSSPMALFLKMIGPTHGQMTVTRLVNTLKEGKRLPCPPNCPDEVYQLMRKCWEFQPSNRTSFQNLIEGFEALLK
JAK2, sequence (O60674 whole entry): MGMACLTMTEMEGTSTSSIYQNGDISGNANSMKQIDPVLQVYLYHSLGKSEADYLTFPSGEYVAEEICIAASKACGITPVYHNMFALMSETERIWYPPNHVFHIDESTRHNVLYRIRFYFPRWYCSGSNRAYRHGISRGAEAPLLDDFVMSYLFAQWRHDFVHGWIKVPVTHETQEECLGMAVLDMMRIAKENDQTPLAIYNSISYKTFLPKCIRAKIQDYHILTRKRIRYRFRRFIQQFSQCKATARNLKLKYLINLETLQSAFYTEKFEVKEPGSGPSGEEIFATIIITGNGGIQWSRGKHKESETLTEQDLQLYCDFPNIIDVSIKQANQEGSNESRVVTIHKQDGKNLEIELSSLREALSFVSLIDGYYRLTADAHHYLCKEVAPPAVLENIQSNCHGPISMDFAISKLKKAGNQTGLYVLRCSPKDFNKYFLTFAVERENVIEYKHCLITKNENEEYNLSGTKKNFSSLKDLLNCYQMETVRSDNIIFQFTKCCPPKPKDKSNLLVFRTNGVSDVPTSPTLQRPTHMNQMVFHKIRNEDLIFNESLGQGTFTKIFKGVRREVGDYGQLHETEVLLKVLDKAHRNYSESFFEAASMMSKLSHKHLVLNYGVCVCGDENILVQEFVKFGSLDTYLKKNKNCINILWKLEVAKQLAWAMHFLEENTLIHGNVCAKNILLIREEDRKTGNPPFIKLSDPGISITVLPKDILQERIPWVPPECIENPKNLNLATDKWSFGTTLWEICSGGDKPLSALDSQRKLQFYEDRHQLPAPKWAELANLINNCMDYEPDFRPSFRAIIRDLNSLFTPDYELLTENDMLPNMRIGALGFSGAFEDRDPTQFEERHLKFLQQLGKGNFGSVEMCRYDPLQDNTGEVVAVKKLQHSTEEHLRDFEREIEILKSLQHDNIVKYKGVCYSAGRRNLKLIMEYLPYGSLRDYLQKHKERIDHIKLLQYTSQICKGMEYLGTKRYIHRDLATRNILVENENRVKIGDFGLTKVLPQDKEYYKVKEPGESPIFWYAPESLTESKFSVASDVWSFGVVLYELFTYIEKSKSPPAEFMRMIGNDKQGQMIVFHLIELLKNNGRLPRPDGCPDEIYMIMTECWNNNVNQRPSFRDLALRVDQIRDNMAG

As to `CCc1cc(O)c(F)cc1-c1cc2[nH]nc(C(=O)NC)c2c(NCc2cc(C)ccc2N(C)S(C)(=O)=O)n1` [Example 21, 6-(2-ethyl-5-fluoro-4-hydroxyphenyl)-N-methyl-4-({5-methyl-2-[methyl(methylsulfonyl)amino]benzyl}amino)-1H-pyrazolo[4,3-c]pyridine-3-carboxamide], the pIC50 in assay [1] (Homo sapiens) was 7.45; on JAK1 it was 8.57; at JAK2, 7.88; on JAK3, 7.17; against TYK2 it was 7.94.

Consider `CNC(=O)c1n[nH]c2cc(-c3cc(F)c(O)cc3CC(F)(F)F)nc(NCc3cc(O)ccc3N(C)S(=O)(=O)c3ccccc3)c12` [Example 35, 6-[5-fluoro-4-hydroxy-2-(2,2,2-trifluoroethyl)phenyl]-4-({5-hydroxy-2-[methyl(phenylsulfonyl)amino]benzyl}amino)-N-methyl-1H-pyrazolo[4,3-c]pyridine-3-carboxamide], for which the pIC50 was 6.36 in assay [1] (Homo sapiens); 7.40 on JAK1; 6.60 at JAK2; 6.09 on JAK3; 6.59 against TYK2.

Turning to `CCc1cc(O)ccc1-c1cc2[nH]ncc2c(N2CCC(S(=O)(=O)N(C)C)C2)n1` (racemic) [Example 126, 1-[6-(2-ethyl-4-hydroxyphenyl)-1H-pyrazolo[4,3-c]pyridin-4-yl]-N, N-dimethylpyrrolidine-3-sulfonamide (racemic)], the pIC50 is 8.09 against JAK1, 7.63 against JAK2, 7.45 against JAK3 and 6.18 on TYK2.

For `CCS(=O)(=O)N(C)c1ccccc1CNc1nc(-c2cc(F)c(O)cc2CC(F)(F)F)cc2[nH]nc(C(=O)NC)c12` [Example 13, 4-({2-[(ethylsulfonyl)(methyl)amino]benzyl}amino)-6-[5-fluoro-4-hydroxy-2-(2,2,2-trifluoroethyl)phenyl]-N-methyl-1H-pyrazolo[4,3-c]pyridine-3-carboxamide], the pIC50 in assay [1] (Homo sapiens) is 7.01; on JAK1 it was 8.28; against JAK2, 7.58; on JAK3, 6.93; against TYK2, 7.45.

As for `CNC(=O)c1n[nH]c2cc(-c3cc(F)c(O)cc3CC(F)(F)F)nc(NCc3cc(F)ccc3N(C)S(C)(=O)=O)c12` [Example 14, 6-[5-fluoro-4-hydroxy-2-(2,2,2-trifluoroethyl)phenyl]-4-({5-fluoro-2-[methyl(methylsulfonyl)amino]benzyl}amino)-N-methyl-1H-pyrazolo[4,3-c]pyridine-3-carboxamide], the pIC50 in assay [1] (Homo sapiens) is 7.68; against JAK1, 8.38; against JAK2, 7.69; on JAK3, 7.00; against TYK2, 7.36.

Regarding `CNC(=O)c1n[nH]c2cc(-c3cc(F)c(O)cc3CC(F)(F)F)nc(NCc3c(F)cccc3N(C)S(C)(=O)=O)c12` [Example 18, 6-[5-fluoro-4-hydroxy-2-(2,2,2-trifluoroethyl)phenyl]-4-({2-fluoro-6-[methyl(methylsulfonyl)amino]benzyl}amino)-N-methyl-1H-pyrazolo[4,3-c]pyridine-3-carboxamide], the pIC50 in assay [1] (Homo sapiens) is 7.01; against JAK1, 8.40; against JAK3 it was 7.14; on TYK2, 7.51.

On to `CCc1cc(O)ccc1-c1cc2[nH]ncc2c(N2CCc3c(cccc3C(=O)NCc3ccccc3)C2)n1` [Example 117, N-benzyl-2-[6-(2-ethyl-4-hydroxyphenyl)-1H-pyrazolo[4,3-c]pyridin-4-yl]-1,2,3,4-tetrahydroisoquinoline-5-carboxamide formate], for which the pIC50 against JAK3 is 7.38; at TYK2 it was 6.37.

In the case of `CNC(=O)c1n[nH]c2cc(-c3cc(F)c(O)cc3CC(F)(F)F)nc(NCc3cc(O)ccc3N(C)S(C)(=O)=O)c12` [Example 50], the pIC50 in assay [1] is 6.49; on JAK2, 7.97; against JAK3 it was 7.32; against TYK2, 7.98.

The compound `CCCCN(c1ccccc1CNc1nc(-c2cc(F)c(O)cc2CC)cc2[nH]ncc12)S(C)(=O)=O` [Example 139, N-butyl-N-[2-({[6-(2-ethyl-5-fluoro-4-hydroxyphenyl)-1H-pyrazolo[4,3-c]pyridin-4-yl]amino}-methyl)phenyl]methanesulfonamide] showed a pIC50 against JAK1 of 8.07.

Turning to `CCc1cc(O)c(F)cc1-c1cc2[nH]ncc2c(N(CCc2ccc(NS(C)(=O)=O)cc2)Cc2ccccc2N(C)S(C)(=O)=O)n1` [Example 130, N-[2-({[6-(2-ethyl-5-fluoro-4-hydroxyphenyl)-1H-pyrazolo[4,3-c]pyridin-4-yl](2-{4-[(methylsulfonyl)amino]phenyl}ethyl)amino}methyl)phenyl]-N-methylmethanesulfonamide hydrochloride], the pIC50 in assay [1] (Homo sapiens) is 6.14; against JAK1 it was 7.36; against JAK3, 5.87; at TYK2 it was 6.71.

As for `CCc1cc(O)c(F)cc1-c1cc2[nH]ncc2c(NCc2ccccc2N(CC)S(C)(=O)=O)n1` [Example 138, N-ethyl-N-[2-({[6-(2-ethyl-5-fluoro-4-hydroxyphenyl)-1H-pyrazolo[4,3-c]pyridin-4-yl]amino}-methyl)phenyl]methanesulfonamide], the pIC50 was 8.27 in assay [1] (Homo sapiens), 8.59 against JAK2, 7.85 against JAK3 and 8.32 against TYK2.

Regarding `CCNC(=O)c1n[nH]c2cc(-c3cc(F)c(O)cc3CC(F)(F)F)nc(NCc3nccnc3N(CC)S(C)(=O)=O)c12` [Example 46, N-ethyl-4-[({3-[ethyl(methylsulfonyl)amino]pyrazin-2-yl}methyl)amino]-6-[5-fluoro-4-hydroxy-2-(2,2,2-trifluoroethyl)phenyl]-1H-pyrazolo[4,3-c]pyridine-3-carboxamide], the pIC50 is 7.48 against JAK1 and 6.75 against JAK3.

Compound `CCN(c1ccc(C)cc1CNc1nc(-c2cc(F)c(O)cc2CC(F)(F)F)cc2[nH]nc(C(N)=O)c12)S(C)(=O)=O` [Example 91, 4-({2-[ethyl(methylsulfonyl)amino]-5-methylbenzyl}amino)-6-[5-fluoro-4-hydroxy-2-(2,2,2-trifluoroethyl)phenyl]-1H-pyrazolo[4,3-c]pyridine-3-carboxamide] gave a pIC50 in assay [1] (Homo sapiens) of 7.58.

Regarding `CNC(=O)c1n[nH]c2cc(-c3cc(F)c(O)cc3CC(F)(F)F)nc(NCc3ccccc3CS(N)(=O)=O)c12` [Example 64, 6-[5-fluoro-4-hydroxy-2-(2,2,2-trifluoroethyl)phenyl]-N-methyl-4-{[2-(sulfamoylmethyl)benzyl]amino}-1H-pyrazolo[4,3-c]pyridine-3-carboxamide], the pIC50 in assay [1] (Homo sapiens) was 6.67.

As to `CNC(=O)c1n[nH]c2cc(-c3cc(F)c(O)cc3C3CC3)nc(NCc3ccccc3N(C)S(C)(=O)=O)c12` [Example 37, 6-(2-cyclopropyl-5-fluoro-4-hydroxyphenyl)-N-methyl-4-({2-[methyl(methylsulfonyl)amino]benzyl}amino)-1H-pyrazolo[4,3-c]pyridine-3-carboxamide], the pIC50 in assay [1] (Homo sapiens) was 7.32.

In the case of `CCc1cc(O)c(F)cc1-c1cc2[nH]nc(C(=O)NC)c2c(NCc2ccccc2N(C)S(=O)(=O)CC)n1` [Example 3, 6-(2-ethyl-5-fluoro-4-hydroxyphenyl)-4-({2-[(ethylsulfonyl)(methyl)amino]benzyl}amino)-N-methyl-1H-pyrazolo[4,3-c]pyridine-3-carboxamide], the pIC50 in assay [1] (Homo sapiens) was 7.79.

For the compound `CN(c1ccc(O)cc1CNc1nc(-c2cc(F)c(O)cc2CC(F)(F)F)nc2[nH]nc(C(=O)Nc3ccc(NCCO)nc3)c12)S(C)(=O)=O` [Example 99, 6-(5-Fluoro-4-hydroxy-2-(2,2,2-trifluoroethyl)phenyl)-4-((5-hydroxy-2-(N-methylmethylsulfonamido)benzyl)amino)-N-(6-((2-hydroxyethyl)amino)pyridin-3-yl)-1H-pyrazolo[3,4-d]pyrimidine-3-carboxamide], the pIC50 in assay [1] (Homo sapiens) is 5.61.

In turn, `CCc1cc(O)c(F)cc1-c1cc2[nH]nc(C(N)=O)c2c(NCc2ccccc2N(C)S(=O)(=O)c2ccccc2)n1` [Example 40, 6-(2-Ethyl-5-fluoro-4-hydroxyphenyl)-4-({2-[methyl(phenylsulfonyl)amino]benzyl}amino)-1H-pyrazolo[4,3-c]pyridine-3-carboxamide] showed a pIC50 in assay [1] (Homo sapiens) of 7.30.

On to `CNC(=O)c1n[nH]c2cc(-c3cc(F)c(O)cc3CC(F)(F)F)nc(NCc3cc(C)cnc3N(C)S(C)(=O)=O)c12` [Example 67, 6-[5-fluoro-4-hydroxy-2-(2,2,2-trifluoroethyl)phenyl]-N-methyl-4-[({5-methyl-2-[methyl(methylsulfonyl)amino]pyridin-3-yl}methyl)amino]-1H-pyrazolo[4,3-c]pyridine-3-carboxamide], for which the pIC50 in assay [1] (Homo sapiens) is 6.98.

For `CS(=O)(=O)N(CCO)c1ccccc1CNc1nc(-c2cc(F)c(O)cc2CC(F)(F)F)cc2[nH]nc(C(N)=O)c12` [Example 27, 6-[5-fluoro-4-hydroxy-2-(2,2,2-trifluoroethyl)phenyl]-4-({2-[(2-hydroxyethyl)(methylsulfonyl)amino]benzyl}amino)-1H-pyrazolo[4,3-c]pyridine-3-carboxamide], in assay [1] (Homo sapiens), the pIC50 is 6.06.

`CNC(=O)c1n[nH]c2cc(-c3cc(F)c(O)cc3CC(F)(F)F)nc(NCc3ccccc3N(C)S(=O)(=O)c3cccc(O)c3)c12` [Example 32, 6-[5-Fluoro-4-hydroxy-2-(2,2,2-trifluoroethyl)phenyl]-4-[(2-{[(3-hydroxyphenyl)sulfonyl](methyl)amino}benzyl)amino]-N-methyl-1H-pyrazolo[4,3-c]pyridine-3-carboxamide] gave a pIC50 in assay [1] (Homo sapiens) of 6.20.

These data come from patent US10022376B2 (Pfizer Inc., priority 2014, dated 2018).
